# In ChEMBL document CHEMBL1128639, “Mechanism of inhibition of poly(ADP-ribose) glycohydrolase by adenosine diphosphate (hydroxymethyl)pyrrolidinediol” (J Med Chem, 1995):
# Tests used:
# [1] = Compound was tested for its inhibitory activity against venom NAD glycohydrolase; design: species or system Bungarus fasciatus
# [2] = Compound was tested for the inhibitor activity against NAD glycohydrolase.; design: species or system Bungarus fasciatus
# [3] = molecular target: Poly(ADP-ribose) glycohydrolase (Bos taurus) (UniProt O02776); assay: Kid describes the approach of hyperbolic function to its new limiting value as [I] increases, for the 1/V vs [I] replot.
# [4] = molecular target: Poly(ADP-ribose) glycohydrolase (Bos taurus) (UniProt O02776); assay: Kid describes the approach of hyperbolic function to its new limiting value as [I] increases, for the KM/V vs [I] replot.
# [5] = molecular target: Poly(ADP-ribose) glycohydrolase (Bos taurus) (UniProt O02776); assay: Inhibitor dissociation constant for the 1/V vs [I] replot.
# [6] = molecular target: Poly(ADP-ribose) glycohydrolase (Bos taurus) (UniProt O02776); assay: Inhibitor dissociation constant was determined by the analysis of the slope versus [inhibitor] replot.e.K
# Chain of Poly(ADP-ribose) glycohydrolase (Bos taurus) (O02776 whole entry): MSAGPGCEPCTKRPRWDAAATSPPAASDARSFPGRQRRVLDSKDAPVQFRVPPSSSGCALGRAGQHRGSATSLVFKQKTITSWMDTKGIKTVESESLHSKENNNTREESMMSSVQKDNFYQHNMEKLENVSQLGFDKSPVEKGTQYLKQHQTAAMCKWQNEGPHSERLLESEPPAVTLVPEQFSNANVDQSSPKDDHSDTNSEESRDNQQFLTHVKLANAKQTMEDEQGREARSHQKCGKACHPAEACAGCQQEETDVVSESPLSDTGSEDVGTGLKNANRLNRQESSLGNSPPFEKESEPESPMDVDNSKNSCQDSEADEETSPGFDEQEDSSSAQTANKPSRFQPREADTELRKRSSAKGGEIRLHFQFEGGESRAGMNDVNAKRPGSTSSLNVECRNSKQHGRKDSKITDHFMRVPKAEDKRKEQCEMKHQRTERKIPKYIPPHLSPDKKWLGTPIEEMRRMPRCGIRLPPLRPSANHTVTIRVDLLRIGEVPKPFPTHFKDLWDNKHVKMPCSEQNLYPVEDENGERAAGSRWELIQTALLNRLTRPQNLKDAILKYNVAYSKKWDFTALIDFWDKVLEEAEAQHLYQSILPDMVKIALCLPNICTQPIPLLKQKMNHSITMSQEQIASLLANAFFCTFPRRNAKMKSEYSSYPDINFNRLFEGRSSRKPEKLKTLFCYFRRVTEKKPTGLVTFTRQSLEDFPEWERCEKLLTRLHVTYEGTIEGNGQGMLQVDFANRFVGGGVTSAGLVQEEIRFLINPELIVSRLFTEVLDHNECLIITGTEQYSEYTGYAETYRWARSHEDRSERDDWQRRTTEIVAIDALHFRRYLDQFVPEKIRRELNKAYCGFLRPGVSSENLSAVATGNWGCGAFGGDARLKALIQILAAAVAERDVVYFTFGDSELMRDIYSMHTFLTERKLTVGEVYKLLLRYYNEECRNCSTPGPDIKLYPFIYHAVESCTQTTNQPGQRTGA
smiles,measurement,setting,value
Nc1ncnc2c1ncn2[C@@H]1O[C@H](COP(=O)(O)OP(=O)(O)OC[C@H]2NC[C@H](O)[C@@H]2O)[C@@H](O)[C@H]1O [ADENOSINE DIPHOSPHATE (HYDROXYMETHYL)PYRROLIDINEDIOL],IC50,[1],260 µM
same,Ki,[2],94 µM
same,Kid,[3],0.21 µM
same,Kid,[4],0.26 µM
same,Kin,[5],0.052 µM
same,Kin,[6],0.08 µM
